Results from patent publication US20190225670A1, “COMPOUNDS AND METHODS FOR ACTIVATING TIE2 SIGNALING” (ASCLEPIX THERAPEUTICS, LLC, priority 2016, published 2019).

Experiments:
[1] = biological target: T1, α5 and β1 integrin subunits (Homo sapiens, UniProt P05556+P08648); experiment: Duolink protein interaction analysis; type: cell-based; conditions: MEC monolayers; 100 μM AXT107 vs vehicle
T1 construct: host or cells: human dermal microvascular endothelial cells (MEC)
Procedure: Additionally, changes in the interaction between the α5 s and β1 subunits were further investigated using Duolink™ technology which can visualize individual interactions between α5 and β1 integrin subunits as distinct spots by fluorescence microscopy.
Glass bottom, 96-well plates were coated with FN1, seeded with MECs, as described above for the immunofluorescence experiments. After growing for forty-eight hours, cells were serum starved for three hours, treated with 100 μM AXT107 or DMSO vehicle for ninety minutes, washed twice with dPBS containing Ca^2+ and Mg^2+, and fixed in 10% neutral buffered formalin. Cells were blocked in 5% normal goat serum; 0.3% Triton X-100 in dPBS containing Ca^2+ and Mg^2+ for one hour and incubated overnight at 4° C. with rabbit anti-α5 integrin and mouse anti-β1 integrin antibodies in PBS containing Ca^2+ and Mg^2+ with 1% BSA and 0.1% Triton X-100. Interaction spots were developed using DUOLINK green detection reagent according to the manufacturer's instructions and detected using the BD pathway 855 system.

[2] = Self-assembly of peptide in media; type: physicochemical; conditions: cell culture media
MEC monolayers = experiment: FITC Transwell permeability assay; type: cell-based, human
Procedure: The integrity of these junctions is also important for the regulation of monolayer permeability by controlling the size of intercellular openings. The effect of the AXT107 on EC permeability was further investigated by the transendothelial diffusion of FITC-labeled dextran across MEC monolayers seeded onto permeable Transwell® substrates.
Transwell, twenty-four-well inserts (Corning) were coated with 7.5 μg/cm^2 FN1 for two hours at 37° C., aspirated, and then dried for thirty minutes at room temperature. Wells were then seeded with 7.5×10^4 MECs in 100 μl of EBM-2 media (without phenol red) and allowed to settle for thirty minutes at room temperature. 1 ml of EGM-2 media was then added to the bottom chamber and an additional 200 μl to the top chamber. The plate was incubated for twenty-four hours at 37° C. after which the media was aspirated and an additional 7.5×10^4 MECs were plated in each well as described above. After forty-eight hours at 37° C., the media was aspirated from both chambers and the cells were washed twice in dPBS containing Ca^2+ and Mg^2+, once with EBM-2 media (without phenol red) and serum starved in EBM-2 media applied to both chambers for two hours at 37° C. After this incubation, 100 μM AXT107 or an equivalent amount of DMSO vehicle was added and incubated for an additional ninety minutes. In the top chamber, the cells were then treated with 200 ng/ml Ang2, 100 ng/ml VEGFA, both, or PBS control and in the bottom chamber, the cells were then treated with 25 μg/ml FITC-Dextran (40 kDa MW). AXT107 was also added in both chambers to maintain a concentration of 100 μM. After three hours, 10 μl was removed from the top chamber of each well and mixed with 90 μl of water in a clear bottom, 96-well plate. Fluorescence values for each sample were calculated using a Perkin Elmer plate reader.

Erk1/2 = experiment: Western blot of phospho-Erk1/2 in MEC lysates treated with Ang2 and AXT107; type: cell-based, human; conditions: AXT107 and Ang2, all tested conditions
Procedure: For Ang1/2 signaling investigations, cell culture dishes (10 cm diameter) were coated with 5 μg/ml fibronectin (FN1; Sigma-Aldrich, St. Louis, Mo.) for two hours at 37° C. The FN1 solution was then removed by aspiration and 5×10^6 microvascular endothelial cells (MECs; Lonza, Walkersville, Md.) were plated in EGM-2MV media (Lonza) and cultured for forty-eight hours at 37° C. The cells were then serum starved for sixteen hours in serum-free EGM-2 base media (Lonza). AXT107 (0-100 μM, as indicated) was subsequently added to each culture and incubated for seventy-five minutes at 37° C. The cultures were then treated with 1 mM sodium vanadate (New England Biolabs, Ipswich, Mass.) for fifteen minutes to enhance the phospho-Tie2 signal followed by stimulation with 200 ng/ml angiopoietin (R&D Systems, Minneapolis, Minn.) for an additional fifteen minutes. […] Specific proteins were identified by Western blot, using the following primary antibodies: Cell Signaling—phospho-Tie2 (Y992) (Cat#: 4221), Tie2 (Cat#: 7403), phospho-Stat3 (Y705) (Cat#: 4113), Stat3 (Cat#: 4904), phospho-Akt (S473) (Cat#: 4058), Akt (Cat#: 9272), phospho-p44/42 MAPK (T202/Y204) (Cat#: 4370), p44/42 MAPK (Cat#: 4695); BD Transduction Laboratories—β1 integrin (Cat#: 610467); Millipore—α5 integrin (Cat#: AB1928) and detected with HRP-conjugated goat anti-rabbit and sheep anti-mouse secondary antibodies (GE healthcare).

T1 sequence (P08648 42-894 limits assumed): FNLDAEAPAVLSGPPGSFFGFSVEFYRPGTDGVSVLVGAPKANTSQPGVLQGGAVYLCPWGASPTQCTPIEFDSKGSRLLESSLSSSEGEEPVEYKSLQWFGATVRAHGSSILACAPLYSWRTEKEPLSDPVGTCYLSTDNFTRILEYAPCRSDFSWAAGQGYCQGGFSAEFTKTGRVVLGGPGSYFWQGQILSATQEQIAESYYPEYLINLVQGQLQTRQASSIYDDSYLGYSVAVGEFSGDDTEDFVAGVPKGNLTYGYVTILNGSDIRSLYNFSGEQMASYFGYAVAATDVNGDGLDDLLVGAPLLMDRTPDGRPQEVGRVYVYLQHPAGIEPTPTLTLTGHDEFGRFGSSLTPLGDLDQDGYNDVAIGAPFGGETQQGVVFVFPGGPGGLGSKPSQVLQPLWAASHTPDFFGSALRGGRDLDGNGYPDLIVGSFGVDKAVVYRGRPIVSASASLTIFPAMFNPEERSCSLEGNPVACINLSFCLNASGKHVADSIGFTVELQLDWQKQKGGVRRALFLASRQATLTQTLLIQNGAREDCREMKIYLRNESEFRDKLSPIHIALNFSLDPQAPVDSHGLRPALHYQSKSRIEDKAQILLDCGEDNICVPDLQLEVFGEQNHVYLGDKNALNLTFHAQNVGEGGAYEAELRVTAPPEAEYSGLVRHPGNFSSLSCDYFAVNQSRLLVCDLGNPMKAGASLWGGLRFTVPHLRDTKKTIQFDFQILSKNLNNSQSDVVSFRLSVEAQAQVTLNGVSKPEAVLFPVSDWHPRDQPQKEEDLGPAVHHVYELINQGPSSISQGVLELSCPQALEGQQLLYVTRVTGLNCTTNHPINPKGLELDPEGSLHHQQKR
T1 sequence (P08648 895-1049 limits assumed): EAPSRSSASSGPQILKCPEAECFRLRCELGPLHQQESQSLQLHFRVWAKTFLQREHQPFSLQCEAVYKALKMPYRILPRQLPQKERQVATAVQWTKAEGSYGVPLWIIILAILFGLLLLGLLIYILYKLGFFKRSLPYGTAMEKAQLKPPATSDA
T1 sequence (P05556 21-798): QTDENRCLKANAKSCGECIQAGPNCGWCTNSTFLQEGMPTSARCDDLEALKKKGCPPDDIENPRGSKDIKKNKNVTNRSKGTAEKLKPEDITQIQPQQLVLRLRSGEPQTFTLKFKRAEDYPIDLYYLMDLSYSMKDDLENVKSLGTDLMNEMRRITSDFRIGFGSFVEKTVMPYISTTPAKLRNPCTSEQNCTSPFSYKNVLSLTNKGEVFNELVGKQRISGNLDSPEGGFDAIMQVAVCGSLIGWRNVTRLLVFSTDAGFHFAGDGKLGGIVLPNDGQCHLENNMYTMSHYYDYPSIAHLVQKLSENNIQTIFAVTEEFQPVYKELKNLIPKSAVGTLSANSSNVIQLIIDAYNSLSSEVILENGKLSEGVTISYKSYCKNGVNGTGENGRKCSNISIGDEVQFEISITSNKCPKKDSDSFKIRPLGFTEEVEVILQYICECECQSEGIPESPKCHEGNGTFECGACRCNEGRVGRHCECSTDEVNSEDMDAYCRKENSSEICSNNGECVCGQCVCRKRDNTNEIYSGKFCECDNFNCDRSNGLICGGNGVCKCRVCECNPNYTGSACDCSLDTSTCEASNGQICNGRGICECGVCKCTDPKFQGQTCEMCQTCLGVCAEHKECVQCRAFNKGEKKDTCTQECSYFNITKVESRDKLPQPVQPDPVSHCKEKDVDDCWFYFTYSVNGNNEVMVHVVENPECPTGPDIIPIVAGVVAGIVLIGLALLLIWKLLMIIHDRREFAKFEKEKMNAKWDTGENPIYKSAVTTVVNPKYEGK

## LRRFSTAPFAFIDINDVINF [AXT107]
[1]
  interactions between α5 and β1 integrin subunits: significantly reduced
[2]
  self-assembly when added to media: self-assemble into peptide complexes
MEC monolayers; Ang2 alone added to monolayers pre-incubated with 100 μM AXT107, vs growth factor alone
  FITC-dextran diffusion into the top chamber: significant decrease
MEC monolayers; Ang2 in combination with VEGF, monolayers pre-incubated with 100 μM AXT107, vs growth factors alone
  FITC-dextran diffusion into the top chamber: significant decrease
MEC monolayers; VEGF in presence vs absence of peptide
  FITC-dextran diffusion: similar, but non-significant trend
MEC monolayers; each agent alone
  FITC-dextran diffusion across the monolayer, single treatment: influenced FITC-dextran diffusion across the monolayer
Erk1/2
  Erk1/2 phosphorylation: remained constant
